According to ChEMBL document CHEMBL4334438, “Discovery of novel glycogen synthase kinase-3α inhibitors: Structure-based virtual screening, preliminary SAR and biological evaluation for treatment of acute myeloid leukemia” (Eur J Med Chem, 2019):

Experiments:
[1] = tested on: Tyrosine-protein kinase receptor UFO (Homo sapiens), P30530 [Q764R]; test: Inhibition of recombinant human Axl Q764R mutant (473 to end residues) assessed as residual activity at 1 uM using KKSRGDYMTMQIG as substrate incubated for 40 mins in presence of [gamma-33ATP] by scintillation counting based radiometry assay relative to control
Tyrosine-protein kinase receptor UFO (Homo sapiens), P30530 [Q764R], sequence (P30530 whole entry Q764R): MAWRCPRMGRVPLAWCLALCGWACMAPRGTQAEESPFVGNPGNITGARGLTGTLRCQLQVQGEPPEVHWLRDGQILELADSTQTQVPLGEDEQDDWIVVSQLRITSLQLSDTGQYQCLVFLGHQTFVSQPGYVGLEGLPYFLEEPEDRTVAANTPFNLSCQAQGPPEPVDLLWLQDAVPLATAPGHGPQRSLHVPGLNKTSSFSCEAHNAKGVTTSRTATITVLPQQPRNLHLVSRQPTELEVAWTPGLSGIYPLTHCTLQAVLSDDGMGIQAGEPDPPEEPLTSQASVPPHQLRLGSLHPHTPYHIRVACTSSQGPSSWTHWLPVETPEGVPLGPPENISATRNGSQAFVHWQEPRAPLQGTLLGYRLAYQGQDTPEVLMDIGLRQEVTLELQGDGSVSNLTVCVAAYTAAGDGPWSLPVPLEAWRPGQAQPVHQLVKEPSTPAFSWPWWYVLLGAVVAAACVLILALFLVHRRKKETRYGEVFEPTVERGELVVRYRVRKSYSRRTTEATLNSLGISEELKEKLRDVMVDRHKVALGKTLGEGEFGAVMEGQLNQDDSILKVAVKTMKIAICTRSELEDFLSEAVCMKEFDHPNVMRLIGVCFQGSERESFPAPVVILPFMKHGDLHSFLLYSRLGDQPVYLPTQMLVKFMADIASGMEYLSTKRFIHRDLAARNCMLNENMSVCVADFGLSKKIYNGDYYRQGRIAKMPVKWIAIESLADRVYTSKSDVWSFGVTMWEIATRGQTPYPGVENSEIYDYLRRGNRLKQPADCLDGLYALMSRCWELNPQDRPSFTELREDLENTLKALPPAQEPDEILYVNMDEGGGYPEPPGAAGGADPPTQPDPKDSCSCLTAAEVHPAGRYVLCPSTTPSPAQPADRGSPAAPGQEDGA

[2] = target: Calcium/calmodulin-dependent protein kinase type 1 (Homo sapiens) (UniProt Q14012); test: Inhibition of recombinant human CaMKIalpha (2 to end residues) assessed as residual activity at 1 uM […] incubated for 40 mins in presence of [gamma-33ATP] by scintillation counting based radiometry assay relative to control
Calcium/calmodulin-dependent protein kinase type 1 (Homo sapiens), sequence (Q14012 whole entry, looked up, canonical isoform): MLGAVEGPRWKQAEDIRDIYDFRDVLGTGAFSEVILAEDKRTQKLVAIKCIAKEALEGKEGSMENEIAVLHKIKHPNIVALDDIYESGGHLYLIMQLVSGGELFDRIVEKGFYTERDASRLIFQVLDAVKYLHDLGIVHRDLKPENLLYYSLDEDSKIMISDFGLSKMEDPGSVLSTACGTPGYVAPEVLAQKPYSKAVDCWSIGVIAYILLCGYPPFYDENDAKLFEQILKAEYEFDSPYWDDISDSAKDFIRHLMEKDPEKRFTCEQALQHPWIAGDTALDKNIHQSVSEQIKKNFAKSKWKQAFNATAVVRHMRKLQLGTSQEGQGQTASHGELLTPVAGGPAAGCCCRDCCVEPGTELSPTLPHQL

[3] = target: Casein kinase I isoform gamma-2 (Homo sapiens) (UniProt P78368); test: Inhibition of recombinant human CK1gamma2 (18 to end residues) assessed as residual activity at 1 uM using KRRRALS(p)VASLPGL as substrate incubated for 40 mins in presence of [gamma-33ATP] by scintillation counting based radiometry assay relative to control
[4] = target: Dual specificity tyrosine-phosphorylation-regulated kinase 2 (Homo sapiens) (UniProt Q92630); test: Inhibition of recombinant human DYRK2 assessed as residual activity at 1 uM using casein as substrate at 40 mins in presence of [gamma-33ATP] by scintillation counting based radiometry assay relative to control
Dual specificity tyrosine-phosphorylation-regulated kinase 2 (Homo sapiens), sequence (Q92630 whole entry): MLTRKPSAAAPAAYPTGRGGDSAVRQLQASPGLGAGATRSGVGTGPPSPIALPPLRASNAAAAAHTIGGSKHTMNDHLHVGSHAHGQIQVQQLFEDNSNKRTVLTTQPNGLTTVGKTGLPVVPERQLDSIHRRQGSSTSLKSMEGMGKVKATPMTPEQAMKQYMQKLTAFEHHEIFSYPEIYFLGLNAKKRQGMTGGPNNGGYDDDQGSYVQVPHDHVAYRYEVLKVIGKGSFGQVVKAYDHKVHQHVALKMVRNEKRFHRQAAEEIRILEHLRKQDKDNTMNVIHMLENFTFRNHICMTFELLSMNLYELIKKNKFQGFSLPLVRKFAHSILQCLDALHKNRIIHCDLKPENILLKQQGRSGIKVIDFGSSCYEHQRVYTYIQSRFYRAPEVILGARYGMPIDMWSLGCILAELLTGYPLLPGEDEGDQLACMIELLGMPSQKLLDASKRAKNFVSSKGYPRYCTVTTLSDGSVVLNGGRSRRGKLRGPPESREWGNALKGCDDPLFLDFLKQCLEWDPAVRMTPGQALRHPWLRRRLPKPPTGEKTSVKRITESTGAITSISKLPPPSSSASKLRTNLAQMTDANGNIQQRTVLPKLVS

[5] = tested on: Receptor tyrosine-protein kinase erbB-2 (Homo sapiens), P04626 [G778D]; test: Inhibition of recombinant human ERBB2 G778D mutant (676 to end residues) assessed as residual activity at 1 uM using poly(Glu, Tyr) 4:1 as substrate at 40 mins in presence of [gamma-33ATP] by scintillation counting based radiometry assay relative to control
[6] = target: Tyrosine-protein kinase Fgr (Homo sapiens) (UniProt P09769); test: Inhibition of recombinant human FGR (2 to end residues) assessed as residual activity at 1 uM using poly(Glu, Tyr) 4:1 as substrate at 40 mins in presence of [gamma-33ATP] by scintillation counting based radiometry assay relative to control
Tyrosine-protein kinase Fgr (Homo sapiens), sequence (P09769 2-529 limits assumed): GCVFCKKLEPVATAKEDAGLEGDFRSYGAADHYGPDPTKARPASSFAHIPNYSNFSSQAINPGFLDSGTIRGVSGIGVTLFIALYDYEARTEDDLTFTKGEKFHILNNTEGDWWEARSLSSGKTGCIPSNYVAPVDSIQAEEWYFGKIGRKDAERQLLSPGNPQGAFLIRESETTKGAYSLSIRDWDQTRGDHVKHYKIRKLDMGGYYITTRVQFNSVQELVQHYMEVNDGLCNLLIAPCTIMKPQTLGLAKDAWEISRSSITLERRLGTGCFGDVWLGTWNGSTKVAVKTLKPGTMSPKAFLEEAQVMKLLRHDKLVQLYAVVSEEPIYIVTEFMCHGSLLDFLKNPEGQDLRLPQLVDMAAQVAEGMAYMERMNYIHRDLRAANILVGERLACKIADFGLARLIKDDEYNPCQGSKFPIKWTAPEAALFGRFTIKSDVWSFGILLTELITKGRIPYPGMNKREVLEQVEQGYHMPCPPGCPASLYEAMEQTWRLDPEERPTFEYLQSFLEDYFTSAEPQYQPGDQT

[7] = target: G protein-coupled receptor kinase 3 (Homo sapiens) (UniProt P35626); test: Inhibition of recombinant full length human GRK3 assessed as residual activity at 1 uM using casein as substrate at 40 mins in presence of [gamma-33ATP] by scintillation counting based radiometry assay relative to control
[8] = target: Serine/threonine-protein kinase haspin (Homo sapiens) (UniProt Q8TF76); test: Inhibition of human Haspin (471 to end residues ) assessed as residual activity at 1 uM using RARTLSFAEPG as substrate after 40 mins by [gamma-33ATP] radiometric assay relative to control
[9] = target: Tyrosine-protein kinase HCK (Homo sapiens) (UniProt P08631); test: Inhibition of human HCK (230 to 497 residues) assessed as residual activity at 1 uM using KVEKIGEGTYGVVYK as substrate after 40 mins by [gamma-33ATP] radiometric assay relative to control
[10] = target: Inhibitor of nuclear factor kappa-B kinase subunit epsilon (Homo sapiens) (UniProt Q14164); test: Inhibition of full length human IKKepsilon assessed as residual activity at 1 uM using casein as substrate after 40 mins by [gamma-33ATP] radiometric assay relative to control
[11] = target: Insulin receptor (Homo sapiens) (UniProt P06213); test: Inhibition of human activated IR (1005 to 1310 residues) assessed as residual activity at 1 uM using KKKSPGEYVNIEFG as substrate after 40 mins by [gamma-33ATP] radiometric assay relative to control
Insulin receptor (Homo sapiens), sequence (P06213 28-758 limits assumed): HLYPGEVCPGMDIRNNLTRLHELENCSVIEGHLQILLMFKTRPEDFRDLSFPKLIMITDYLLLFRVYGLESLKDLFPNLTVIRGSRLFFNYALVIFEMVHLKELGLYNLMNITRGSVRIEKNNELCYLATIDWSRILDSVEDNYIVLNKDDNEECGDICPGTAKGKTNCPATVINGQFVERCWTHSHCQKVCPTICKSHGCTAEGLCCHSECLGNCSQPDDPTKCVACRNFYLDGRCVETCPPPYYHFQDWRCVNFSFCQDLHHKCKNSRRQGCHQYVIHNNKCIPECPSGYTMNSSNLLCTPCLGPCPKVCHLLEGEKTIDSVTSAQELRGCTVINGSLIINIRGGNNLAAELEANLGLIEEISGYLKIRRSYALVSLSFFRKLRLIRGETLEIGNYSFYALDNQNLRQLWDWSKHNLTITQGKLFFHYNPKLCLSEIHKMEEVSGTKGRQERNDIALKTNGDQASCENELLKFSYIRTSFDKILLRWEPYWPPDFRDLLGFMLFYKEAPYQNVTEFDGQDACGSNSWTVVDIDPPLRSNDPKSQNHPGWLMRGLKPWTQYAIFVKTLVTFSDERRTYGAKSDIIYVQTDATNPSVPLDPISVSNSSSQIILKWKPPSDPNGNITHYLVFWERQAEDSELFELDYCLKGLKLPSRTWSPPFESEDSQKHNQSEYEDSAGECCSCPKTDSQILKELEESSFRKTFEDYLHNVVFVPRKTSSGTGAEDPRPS
Insulin receptor (Homo sapiens), sequence (P06213 763-1382 limits assumed): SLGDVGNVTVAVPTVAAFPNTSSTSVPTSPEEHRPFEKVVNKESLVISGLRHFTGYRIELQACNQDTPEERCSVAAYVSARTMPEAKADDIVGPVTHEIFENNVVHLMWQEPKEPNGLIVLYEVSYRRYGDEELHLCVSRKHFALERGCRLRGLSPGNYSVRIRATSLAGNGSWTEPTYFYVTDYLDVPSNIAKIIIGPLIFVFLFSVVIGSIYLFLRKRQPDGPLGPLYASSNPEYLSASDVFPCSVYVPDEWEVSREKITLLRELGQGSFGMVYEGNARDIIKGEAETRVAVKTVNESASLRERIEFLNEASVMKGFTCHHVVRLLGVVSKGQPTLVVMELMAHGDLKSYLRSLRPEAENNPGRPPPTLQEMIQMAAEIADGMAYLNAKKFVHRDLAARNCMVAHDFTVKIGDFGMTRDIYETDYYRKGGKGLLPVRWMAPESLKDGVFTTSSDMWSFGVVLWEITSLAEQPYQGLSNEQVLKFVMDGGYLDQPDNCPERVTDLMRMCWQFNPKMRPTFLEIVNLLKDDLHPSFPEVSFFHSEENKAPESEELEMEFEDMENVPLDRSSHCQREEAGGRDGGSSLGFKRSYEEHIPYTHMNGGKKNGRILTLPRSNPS

[12] = target: Mitogen-activated protein kinase 1 (Homo sapiens) (UniProt P28482); test: Inhibition of recombinant full length human MAPK1 assessed as residual activity at 1 uM using myelin basic protein as substrate incubated for 40 mins in presence of [gamma-33P]ATP by scintillation counting based radiometry assay relative to control
[13] = target: Ribosomal protein S6 kinase alpha-4 (Homo sapiens) (UniProt O75676); test: Inhibition of recombinant human MSK2 (2 to end residues) assessed as residual activity at 1 uM using GRPRTSSFAEGKK as substrate measured after 40 mins in presence of [gamma33P]ATP by scintillation counting method relative to control
[14] = tested on: Ribosomal protein S6 kinase beta-1 (Homo sapiens), P23443 [T412E]; test: Inhibition of recombinant human p70S6K T412E mutant (1 to 421 residues) assessed as residual activity at 1 uM using KKRNRTLTV as substrate measured after 40 mins in presence of [gamma33P]ATP by scintillation counting method relative to control
[15] = target: Tyrosine-protein kinase receptor TYRO3 (Homo sapiens) (UniProt Q06418); test: Inhibition of recombinant human RSE (451 to end residues) assessed as residual activity at 1 uM using KVEKIGEGTYGVVYK as substrate measured after 40 mins in presence of [gamma33P]ATP by scintillation counting method relative to control
Tyrosine-protein kinase receptor TYRO3 (Homo sapiens), sequence (Q06418 whole entry): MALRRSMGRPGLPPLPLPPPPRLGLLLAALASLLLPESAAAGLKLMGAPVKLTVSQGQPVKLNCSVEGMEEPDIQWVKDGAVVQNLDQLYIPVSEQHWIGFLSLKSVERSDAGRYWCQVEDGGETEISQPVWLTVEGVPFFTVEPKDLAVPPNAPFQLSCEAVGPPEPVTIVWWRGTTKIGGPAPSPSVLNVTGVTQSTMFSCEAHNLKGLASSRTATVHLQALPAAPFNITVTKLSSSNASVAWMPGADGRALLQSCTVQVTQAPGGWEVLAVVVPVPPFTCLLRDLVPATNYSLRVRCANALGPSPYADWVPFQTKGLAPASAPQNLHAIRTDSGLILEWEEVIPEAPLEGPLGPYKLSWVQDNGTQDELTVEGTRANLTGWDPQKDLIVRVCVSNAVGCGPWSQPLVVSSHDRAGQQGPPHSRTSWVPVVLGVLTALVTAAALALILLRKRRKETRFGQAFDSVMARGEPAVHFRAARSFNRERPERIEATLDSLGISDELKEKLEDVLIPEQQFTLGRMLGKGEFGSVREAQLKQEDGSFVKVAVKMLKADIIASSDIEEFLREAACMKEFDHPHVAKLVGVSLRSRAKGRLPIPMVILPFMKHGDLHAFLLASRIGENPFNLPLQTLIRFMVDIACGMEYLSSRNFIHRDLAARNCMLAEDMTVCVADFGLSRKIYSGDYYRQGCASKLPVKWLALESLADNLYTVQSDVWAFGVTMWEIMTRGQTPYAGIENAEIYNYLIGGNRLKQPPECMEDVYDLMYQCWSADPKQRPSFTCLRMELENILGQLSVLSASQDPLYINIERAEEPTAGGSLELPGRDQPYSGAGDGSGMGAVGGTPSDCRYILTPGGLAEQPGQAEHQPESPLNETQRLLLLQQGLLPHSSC

[16] = target: Transcription initiation factor TFIID subunit 1-like (Homo sapiens) (UniProt Q8IZX4); test: Inhibition of human TAF1L (1428 to end residues) assessed as residual activity at 1 uM using RRRFRPASPLRGPPK as substrate measured after 120 mins in presence of [gamma33P]ATP by scintillation counting method relative to control
[17] = target: Serine/threonine-protein kinase TBK1 (Homo sapiens) (UniProt Q9UHD2); test: Inhibition of recombinant full-length human TBK1 at 1 uM assessed as residual activity at 1 uM using KRRRALS(p)VASLPGL as substrate measured after 40 mins in presence of [gamma33P]ATP by scintillation counting method relative to control
[18] = target: Testis-specific serine/threonine-protein kinase 4 (Homo sapiens) (UniProt Q6SA08); test: Inhibition of recombinant full-length human TSSK4 at 1 uM assessed as residual activity at 1 uM using KKLNRTLSFAEPG as substrate measured after 40 mins in presence of [gamma33P]ATP by scintillation counting method relative to control
Testis-specific serine/threonine-protein kinase 4 (Homo sapiens), sequence (Q6SA08 whole entry): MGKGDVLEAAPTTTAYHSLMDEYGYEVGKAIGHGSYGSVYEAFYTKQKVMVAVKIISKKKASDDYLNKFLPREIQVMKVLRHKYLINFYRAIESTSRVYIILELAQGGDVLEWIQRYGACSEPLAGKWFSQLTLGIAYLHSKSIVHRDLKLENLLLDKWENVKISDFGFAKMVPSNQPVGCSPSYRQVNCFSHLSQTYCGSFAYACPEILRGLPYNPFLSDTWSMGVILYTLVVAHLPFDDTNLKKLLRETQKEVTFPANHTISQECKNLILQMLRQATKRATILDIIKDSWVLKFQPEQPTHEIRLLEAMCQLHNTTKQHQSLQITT

[19] = target: Tyrosine-protein kinase Yes (Homo sapiens) (UniProt P07947); test: Inhibition of recombinant full-length human Yes at 1 uM assessed as residual activity at 1 uM using poly(Glu, Tyr) 4:1 as substrate measured after 40 mins in presence of [gamma33P]ATP by scintillation counting method relative to control
[20] = target: Phosphatidylinositol 4-phosphate 3-kinase C2 domain-containing subunit alpha (Homo sapiens) (UniProt O00443); test: Inhibition of recombinant human PI3KC2alpha (299 to end residues) at 1 uM assessed as residual activity at 1 uM using phosphatidylinositol as substrate measured after 40 mins by HTRF assay
[21] = tested on: Mitogen-activated protein kinase kinase kinase 10 (MLK2); test: Inhibition of recombinant human MLK2 (1 to 499 residues) assessed as residual activity at 1 uM using myelin basic protein as substrate incubated for 40 mins in presence of [gamma-33ATP by scintillation counting based radiometry assay relative to control

| Structure (SMILES) | Activity [1] | Activity [2] | Activity [3] | Activity [4] | Activity [5] | Activity [6] | Activity [7] | Activity [8] | Activity [9] | Activity [10] | Activity [11] | Activity [12] | Activity [13] | Activity [14] | Activity [15] | Activity [16] | Activity [17] | Activity [18] | Activity [19] | Activity [20] | also measured |
| --- | --- | --- | --- | --- | --- | --- | --- | --- | --- | --- | --- | --- | --- | --- | --- | --- | --- | --- | --- | --- | --- |
| C=CCOC(=O)c1cc(-c2ccc(/C=C3/NC(=S)NC3=O)o2)ccc1Cl | 101% | 90% | 94% | 91% | 118% | 90% | 117% | 87% | 73% | 98% | 106% | 106% | 103% | 108% | 100% | 66% | 98% | 121% | 90% | 87% | Activity [21]: 103% |
| N=C1NC(=O)/C(=C\c2ccc(-c3cccc([N+](=O)[O-])c3)o2)S1 | 98% | 103% | 98% | 82% | 103% | 81% | 94% | 59% | 72% | 100% | 103% | 97% | 97% | 99% | 110% | 51% | 105% | 102% | 76% | 100% | Activity [21]: 101% |
